# Columns and labels:
# [1] = system: BT474 cells; test: Induction of apoptosis, Caspase 3/7 activation; assay type: cell-based, human; details: FIG. 7
# Procedure: Briefly, 10000 BT474 cells were seeded per well in a 96 well plate in100 μl complete medium and incubated for 24 hours. […] Caspase Glo reagent was added according to the manufactures protocol for 1 hour. Caspase 3/7 activation was monitored by measuring luciferase activity. Alternatively induction of apoptosis was determined using the Cell Death Detection [sequence] system (Roche, Switzerland). The assay was performed according to the manufactures protocol. Cell number and incubations times were similar to the Caspase Glo readout. Data were analyzed using the GraphPad prism software, plotting concentration on the x-axis against OD405/490 nm or relative light units (RLU; measured on a Tecan M-1000 reader) on the y-axis. Data were fitted using a non-linear regression fit (log(agonist) vs. response—Variable slope (four parameters)).
# [2] = system: GXA3039; test: Gastric cancer patient derived tumor xenograft mouse model GXA3039; assay type: in vivo; details: GXA3039, FIG. 4D; Protein #21 60 mg/kg, antibodies 10 mg/kg, every three days for 6 times
# Procedure: Further, Protein #21 was expressed and purified as described in Example 1. […] All groups were dosed every three days for 6 times. Briefly, tumor fragments were obtained from xenografts in serial passage in nude mice. After removal from donor mice, tumors were cut into fragments (4-5 mm diameter) for subcutaneous implantation. Mice were randomized into groups when tumors reached a volume of approximately 100-120 mm^3. The day of randomization and treatment initiation is designated as day 0 in each experiment. Tumor growth was monitored by two-dimensional measurement with a caliper on the day of randomization and then twice weekly. Relative volumes of individual tumors (individual RTVs) for Day x were calculated by dividing the individual tumor volume on Day x (Tx) by the individual volume of the same tumor on Day 0 (TO) multiplied by 100%. Tumor inhibition for a particular day (T/C in %) was calculated from the ratio of the median RTV values of test versus control groups multiplied by 100%.
# [3] = system: AKT; test: Phospho-proteome mass spectrometry of BT474 cells; assay type: cell-based, human; details: 100 nM, 18 hours
# Source text: (§1) Protein #21 was expressed and purified as described in Example 1. […] Cells were then subjected to a phospho-proteome mass-spectrometry analysis as described by Britton, D., et al. (Britton, D., Zen, Y., Quaglia, A., Selzer, S., Mitra, VI., Lössner, C., Jung, S., Bohm, G., Schmid, P., Prefot, P., Hoehle, C., Koncarevic, S., Gee, J., Nicholson, R., Ward, M., Castellano, L., Stebbing, J., Zucht, H. D., Sarker, D., Heaton, N., and Pike, I., 2014. PLOS One 9 (3), e90948).
# [4] = system: RAF; test: Phospho-proteome mass spectrometry of BT474 cells; assay type: cell-based, human; details: 100 nM, 18 hours
# Source text: as §1
# [5] = system: RPS6KB1/S6 Kinase; test: Phospho-proteome mass spectrometry of BT474 cells; assay type: cell-based, human; details: 100 nM, 18 hours
# Source text: as §1
# [6] = system: mTOR; test: Phospho-proteome mass spectrometry of BT474 cells; assay type: cell-based, human; details: 100 nM, 18 hours
# Source text: as §1
# [7] = system: AKT; test: Phospho-site specific ELISA, BT474 cells; assay type: cell-based, human; details: 100 nM, 18 hours
# [8] = system: HER3; test: Phosphorylation state ELISA, BT474 cells; assay type: cell-based, human; details: 100 nM, 18 hours
# [9] = system: HER1/EGFR; test: Phosphorylation state ELISA, BT474 cells; assay type: cell-based, human; details: 100 nM, 18 hours
# [10] = system: Foxo3a protein; test: Cellular levels of Foxo3a protein in BT474 cells; assay type: cell-based, human; details: compared to an exposure to PBS only
# Source text: as §1
# (§2) It is known to the practitioner in the art, that Akt1 phosphorylates Foxo3a, resulting in the degradation of Foxo3a and promotion of cell survival. Inhibition of Act phosphorylation leads to stabilization of Foxo3a and thus increase in Foxo3a levels. At increased levels Foxo3a can translocate to the nucleus and induce apoptosis.
# [11] = system: Foxo3a protein; test: Cellular levels of Foxo3a protein in NCI-N87 cells; assay type: cell-based; details: compared to an exposure to PBS only
# Source text: as §1, §2
substance,measurement,setting,value
Pertuzumab [reference compound],induction of apoptosis in BT474 cells,[1],did not induce apoptosis
same,"inhibition of tumor growth, second experiment",[2],significantly less efficacious
same,AKT S124 phosphorylation,[3],1.04 fold change to PBS
same,AKT S129 phosphorylation,[3],1.16 fold change to PBS
same,RAF S642 phosphorylation,[4],1.2 fold change to PBS
same,RAF T631/T638/T640/T641/S642 phosphorylation,[4],1.01 fold change to PBS
same,RPS6KB1/S6Kinase S441/T444/S447 phosphorylation,[5],1.02 fold change to PBS
same,RPS6KB1/S6Kinase T444/S447 phosphorylation,[5],1.04 fold change to PBS
same,mTOR S2448/S2454 phosphorylation,[6],1.09 fold change to PBS
same,AKT S473 phosphorylation,[7],0.73 fold change to PBS
same,HER3 Pan-Phospho-Tyrosine,[8],0.78 fold change to PBS
same,HER1/EGFR Pan-Phospho-Tyrosine,[9],0.68 fold change to PBS
same,increase of cellular levels of Foxo3a protein,[10],1.21 fold
same,increase of cellular levels of Foxo3a protein,[11],1.25 fold
